Results as given in patent US12497393B2, “β-lactam compound, use thereof and preparation method therefor” (priority 2020, dated 2025).
≈ marks a conversion by molar mass, not a printed value. Where two headings read alike, the source gives them in different places.

Key:
Test in all cases: Antibacterial activity MIC assay (two-fold dilution agar plating)
Format in all cases: cell-based
[1] = system: Stenotrophomonas maltophilia; details: ATCC13636; Stenotrophomonas maltophilia ATCC 13636; read-out: Minimal Inhibitory Concentration (MIC)
Method: (§1) Antibacterial Activity-Evaluating Method (MIC Assay)
(§2) In this study, the compounds of the present invention were tested for their antibacterial activities by using two-fold dilution agar plating method and Denley Multipoint Inoculator A400 according to the guidelines of the CLSI/NCCLS standard. The tested strains were amplified by hydrolyzed casein peptone (Mueller-Hinton Agar) broth and Brain and Heart Infusion. The strains used in this study were bacterial strains that were purchased from ATCC or clinically isolated in Chinese hospitals. Aztreonam, polymyxin or levofloxacin was used as positive control. The drugs were diluted with hydrolyzed casein peptone broth to the desired concentrations including 128.0, 64.0, 32.0, 16.0, 8.0, 4.0, 2.0, 1.0, 0.5, 0.25, 0.125, 0.06 and 0.03 μg/mL, and then placed respectively into each well and mixed thoroughly. After inoculation, the tested strains were incubated for 18 hours at a constant temperature of 35° C., and their growth levels were observed. The drug concentration with no microbial growth in the well was recorded as the lowest Minimal Inhibitory Concentration (MIC).

Providencia rettgeri = details: Providencia rettgeri, ATCC31052, Providencia rettgeri ATCC 31052; read-out: Minimal Inhibitory Concentration (MIC)
Method: as §1, §2

Serratia marcescens = details: ATCC21074; Serratia marcescens ATCC 21074; read-out: Minimal Inhibitory Concentration (MIC)
Method: as §1, §2

Klebsiella Pneumoniae = details: Klebsiella pneumoniae, read-out: Minimal Inhibitory Concentration (MIC)
Method: as §1, §2

Acinetobacter baumannii = details: Acinetobacter baumannii, read-out: Minimal Inhibitory Concentration (MIC)
Method: as §1, §2

Pseudomonas aeruginosa = details: read-out: Minimal Inhibitory Concentration (MIC)
Method: as §1, §2

Shigella flexneri = details: ATCC12022; Shigella flexneri ATCC 12022; read-out: Minimal Inhibitory Concentration (MIC)
Method: as §1, §2

Escherichia coli = details: Escherichia coli, read-out: Minimal Inhibitory Concentration (MIC)
Method: as §1, §2

Enterobacter cloacae = details: read-out: Minimal Inhibitory Concentration (MIC)
Method: as §1, §2

Proteus mirabilis = details: Proteus mirabilis, ATCC49565, Proteus mirabilis ATCC 49565; read-out: Minimal Inhibitory Concentration (MIC)
Method: as §1, §2

Citrobacter freundii = details: ATCC43864; Citrobacter freundii ATCC 43864; read-out: Minimal Inhibitory Concentration (MIC)
Method: as §1, §2

Proteus vulgaris = details: Proteus vulgaris, ATCC29905, Proteus vulgaris ATCC 29905; read-out: Minimal Inhibitory Concentration (MIC)
Method: as §1, §2

Salmonella typhi = details: Salmonella enterica, TYPHI, read-out: Minimal Inhibitory Concentration (MIC)
Method: as §1, §2

Enterobacter aerogenes = details: Klebsiella aerogenes, ATCC13048; Enterobacter aerogenes ATCC 13048; read-out: Minimal Inhibitory Concentration (MIC)
Method: as §1, §2

[2] = ATCC700603, Klebsiella Pneumoniae ATCC 700603, ESBLs(+)
[3] = ATCCBAA2146, Klebsiella Pneumoniae ATCC BAA-2146, NDM-1(+)
[4] = Klebsiella Pneumoniae 09-20, mcr-1(+)
[5] = Klebsiella Pneumoniae 16-2, ESBLs(−)
[6] = Klebsiella Pneumoniae 16-14, ESBLs(+)
[7] = Klebsiella Pneumoniae 17-R27, CRE
[8] = ATCC19606, Acinetobacter baumannii ATCC 19606
[9] = ATCC27853, Pseudomonas aeruginosa ATCC 27853
[10] = ATCC25922, Escherichia coli ATCC 25922, ESBLs(−)
[11] = ATCC35218, Escherichia coli ATCC 35218, ESBLs(+)
[12] = Escherichia coli 08-85, mcr-1(+)
[13] = Escherichia coli 13-43, mcr-1(+)
[14] = Escherichia coli 13-66, mcr-1(+)
[15] = Escherichia coli 16-1, ESBLs(+)
[16] = Escherichia coli 16-7, ESBLs(−)
[17] = Escherichia coli 17-R28, CRE, NDM-1(+)
[18] = Escherichia coli CDC1001728, NDM-1(+)
[19] = ATCC43560, Enterobacter cloacae ATCC 43560
[20] = Enterobacter cloacae CDC1000654

| SMILES | MIC [1] | MIC (Providencia rettgeri) | MIC (Serratia marcescens) | MIC (Klebsiella Pneumoniae; [2]) | MIC (Klebsiella Pneumoniae; [3]) | MIC (Klebsiella Pneumoniae; [4]) | MIC (Klebsiella Pneumoniae; [5]) | MIC (Klebsiella Pneumoniae; [6]) | MIC (Klebsiella Pneumoniae; [7]) | MIC (Acinetobacter baumannii; [8]) | MIC (Acinetobacter baumannii; Acinetobacter baumannii 16-16) | MIC (Acinetobacter baumannii; Acinetobacter baumannii 16-33) | MIC (Pseudomonas aeruginosa; [9]) | MIC (Pseudomonas aeruginosa; Pseudomonas aeruginosa 16-11) | MIC (Pseudomonas aeruginosa; Pseudomonas aeruginosa PAO1) | MIC (Shigella flexneri) | MIC (Escherichia coli; [10]) | MIC (Escherichia coli; [11]) | MIC (Escherichia coli; [12]) | MIC (Escherichia coli; [13]) | other results |
| --- | --- | --- | --- | --- | --- | --- | --- | --- | --- | --- | --- | --- | --- | --- | --- | --- | --- | --- | --- | --- | --- |
| CC1(C)[C@H](NC(=O)/C(=N\OC2(C(=O)O)CCC2)c2csc(N)n2)C(=O)N1OS(=O)(=O)O [Compound A-2] | 4 µg/mL (≈ 8.38 µM) | ≤ 0.03 µg/mL | 0.25 µg/mL (≈ 0.524 µM) | 1 µg/mL (≈ 2.09 µM) | 0.25 µg/mL (≈ 0.524 µM) | 0.12 µg/mL (≈ 0.251 µM) | 2 µg/mL (≈ 4.19 µM) | 0.12 µg/mL (≈ 0.251 µM) | 0.25 µg/mL (≈ 0.524 µM) | 16 µg/mL (≈ 33.5 µM) | > 64 µg/mL | 16 µg/mL (≈ 33.5 µM) | 4 µg/mL (≈ 8.38 µM) | 4 µg/mL (≈ 8.38 µM) | 1 µg/mL (≈ 2.09 µM) | 0.25 µg/mL (≈ 0.524 µM) | 0.12 µg/mL (≈ 0.251 µM) | 0.06 µg/mL (≈ 0.126 µM) | 0.12 µg/mL (≈ 0.251 µM) | 0.12 µg/mL (≈ 0.251 µM) | MIC (Escherichia coli; [14]): 0.12 µg/mL (≈ 0.251 µM); MIC (Escherichia coli; [15]): 0.06 µg/mL (≈ 0.126 µM); MIC (Escherichia coli; [16]): 0.12 µg/mL (≈ 0.251 µM); MIC (Escherichia coli; [17]): 16 µg/mL (≈ 33.5 µM); MIC (Escherichia coli; [18]): 0.5 µg/mL (≈ 1.05 µM); MIC (Enterobacter cloacae; [19]): 0.12 µg/mL (≈ 0.251 µM); MIC (Enterobacter cloacae; [20]): 2 µg/mL (≈ 4.19 µM); MIC (Proteus mirabilis): ≤ 0.03 µg/mL; MIC (Citrobacter freundii): 0.12 µg/mL (≈ 0.251 µM); MIC (Proteus vulgaris): ≤ 0.03 µg/mL; MIC (Salmonella typhi): 0.12 µg/mL (≈ 0.251 µM); MIC (Enterobacter aerogenes): 1 µg/mL (≈ 2.09 µM) |
| CC1(C)[C@H](NC(=O)/C(=N\OC2(C(=O)O)CCCC2)c2csc(N)n2)C(=O)N1OS(=O)(=O)O [Compound A-3] | 4 µg/mL (≈ 8.14 µM) | ≤ 0.03 µg/mL | 0.5 µg/mL (≈ 1.02 µM) | 1 µg/mL (≈ 2.03 µM) | 0.5 µg/mL (≈ 1.02 µM) | 0.25 µg/mL (≈ 0.509 µM) | 2 µg/mL (≈ 4.07 µM) | 0.5 µg/mL (≈ 1.02 µM) | 0.25 µg/mL (≈ 0.509 µM) | 32 µg/mL (≈ 65.1 µM) | > 64 µg/mL | 32 µg/mL (≈ 65.1 µM) | 4 µg/mL (≈ 8.14 µM) | 4 µg/mL (≈ 8.14 µM) | 2 µg/mL (≈ 4.07 µM) | 0.25 µg/mL (≈ 0.509 µM) | 0.25 µg/mL (≈ 0.509 µM) | 0.25 µg/mL (≈ 0.509 µM) | 0.25 µg/mL (≈ 0.509 µM) | 0.5 µg/mL (≈ 1.02 µM) | MIC (Escherichia coli; [14]): 0.25 µg/mL (≈ 0.509 µM); MIC (Escherichia coli; [15]): 0.25 µg/mL (≈ 0.509 µM); MIC (Escherichia coli; [16]): 0.5 µg/mL (≈ 1.02 µM); MIC (Escherichia coli; [17]): 8 µg/mL (≈ 16.3 µM); MIC (Escherichia coli; [18]): 0.5 µg/mL (≈ 1.02 µM); MIC (Enterobacter cloacae; [19]): 0.5 µg/mL (≈ 1.02 µM); MIC (Enterobacter cloacae; [20]): 4 µg/mL (≈ 8.14 µM); MIC (Proteus mirabilis): 0.06 µg/mL (≈ 0.122 µM); MIC (Citrobacter freundii): 0.25 µg/mL (≈ 0.509 µM); MIC (Proteus vulgaris): ≤ 0.03 µg/mL; MIC (Salmonella typhi): 0.5 µg/mL (≈ 1.02 µM); MIC (Enterobacter aerogenes): 0.5 µg/mL (≈ 1.02 µM) |
| CC(C)[C@H](O/N=C(\C(=O)N[C@@H]1C(=O)N(OS(=O)(=O)O)C1(C)C)c1csc(N)n1)C(=O)O [Compound A-4] | 8 µg/mL (≈ 16.7 µM) | ≤ 0.03 µg/mL | 0.25 µg/mL (≈ 0.521 µM) | 2 µg/mL (≈ 4.17 µM) | 0.5 µg/mL (≈ 1.04 µM) | 0.12 µg/mL (≈ 0.25 µM) | 1 µg/mL (≈ 2.09 µM) | 0.25 µg/mL (≈ 0.521 µM) | 0.25 µg/mL (≈ 0.521 µM) | 64 µg/mL (≈ 133 µM) | > 64 µg/mL | 32 µg/mL (≈ 66.7 µM) | 8 µg/mL (≈ 16.7 µM) | 8 µg/mL (≈ 16.7 µM) | 4 µg/mL (≈ 8.34 µM) | 0.25 µg/mL (≈ 0.521 µM) | 0.25 µg/mL (≈ 0.521 µM) | 0.12 µg/mL (≈ 0.25 µM) | 0.25 µg/mL (≈ 0.521 µM) | 0.25 µg/mL (≈ 0.521 µM) | MIC (Escherichia coli; [14]): 0.25 µg/mL (≈ 0.521 µM); MIC (Escherichia coli; [15]): 0.12 µg/mL (≈ 0.25 µM); MIC (Escherichia coli; [16]): 0.25 µg/mL (≈ 0.521 µM); MIC (Escherichia coli; [17]): 8 µg/mL (≈ 16.7 µM); MIC (Escherichia coli; [18]): 0.5 µg/mL (≈ 1.04 µM); MIC (Enterobacter cloacae; [19]): 0.12 µg/mL (≈ 0.25 µM); MIC (Enterobacter cloacae; [20]): 1 µg/mL (≈ 2.09 µM); MIC (Proteus mirabilis): ≤ 0.03 µg/mL; MIC (Citrobacter freundii): 0.12 µg/mL (≈ 0.25 µM); MIC (Proteus vulgaris): ≤ 0.03 µg/mL; MIC (Salmonella typhi): 0.12 µg/mL (≈ 0.25 µM); MIC (Enterobacter aerogenes): 0.5 µg/mL (≈ 1.04 µM) |
| CC(C)[C@@H](O/N=C(\C(=O)N[C@@H]1C(=O)N(OS(=O)(=O)O)C1(C)C)c1csc(N)n1)C(=O)O [Compound A-5] | > 64 µg/mL | 4 µg/mL (≈ 8.34 µM) | 32 µg/mL (≈ 66.7 µM) | 64 µg/mL (≈ 133 µM) | > 64 µg/mL | 16 µg/mL (≈ 33.4 µM) | 32 µg/mL (≈ 66.7 µM) | 16 µg/mL (≈ 33.4 µM) | 32 µg/mL (≈ 66.7 µM) | > 64 µg/mL | > 64 µg/mL | > 64 µg/mL | > 64 µg/mL | > 64 µg/mL | > 64 µg/mL | 64 µg/mL (≈ 133 µM) | 16 µg/mL (≈ 33.4 µM) | 16 µg/mL (≈ 33.4 µM) | 32 µg/mL (≈ 66.7 µM) | 32 µg/mL (≈ 66.7 µM) | MIC (Escherichia coli; [14]): 16 µg/mL (≈ 33.4 µM); MIC (Escherichia coli; [15]): 8 µg/mL (≈ 16.7 µM); MIC (Escherichia coli; [16]): 32 µg/mL (≈ 66.7 µM); MIC (Escherichia coli; [17]): > 64 µg/mL; MIC (Escherichia coli; [18]): 32 µg/mL (≈ 66.7 µM); MIC (Enterobacter cloacae; [19]): 16 µg/mL (≈ 33.4 µM); MIC (Enterobacter cloacae; [20]): > 64 µg/mL; MIC (Proteus mirabilis): 1 µg/mL (≈ 2.09 µM); MIC (Citrobacter freundii): 16 µg/mL (≈ 33.4 µM); MIC (Proteus vulgaris): 4 µg/mL (≈ 8.34 µM); MIC (Salmonella typhi): 32 µg/mL (≈ 66.7 µM); MIC (Enterobacter aerogenes): 32 µg/mL (≈ 66.7 µM) |
